This is an account of results in patent US10690683B2, “Methods of use for intermediate filament protein probes” (University of Connecticut, priority 2016, dated 2020).

Series [1] deals with vimentin and GFAP. Particulars: laser injured mice, day 7, 1 μM intraperitoneal, sacrificed 24 h later.
Description: Mice of both sexes were anesthetized and subjected to 4 equally spaced laser burns focused on the retinal pigment epithelium (RPE). Using the Meridian laser attached to Micron III retinal fundus microscope (Phoenix Research labs) we used strong injury (150 mW with 50 msec pulse) to promote retinal gliosis with CNV.
The mouse imaging system (Micron III, Phoenix Research Labs, CA) provided with an image-guided Meridian Merilas 532 nm (Nd:YVO) laser was employed. Using the Diode laser 625-645 nm as an aiming beam the continuous wave, KTP frequency doubled Nd:YVO 532 nm laser was employed to deliver laser injuries in anesthetized mice. Here four (150 mW; 10-μm diameter, 50 msec duration) laser shots equally spaced around the optic nerve were delivered to disrupt the RPE. […] Mice were sacrificed 24 h later and eyes enucleated for tissue sectioning and antibody staining to vimentin and GFAP.
Series [2] deals with BHK-21 cells (mitochondrial movements). The experiment in a line: Nocodazole treatment, time-lapse live imaging of BHK-21 cells with MitoTracker dye and WFA-Verde. It counts as cell-based, hamster. Particulars: 10 μM Nocodazole. How it is done:
BHK-21 cells were cultured in glass bottom plates and treated with MitoTracker® dye alone or separately with 10 μM Nocodazole. […] Time-lapse images were collected every 5 seconds in each of the four treatment groups.

Series [3] has as its system vimentin (p-Ser38Vimentin). An excerpt: Cells were fixed, permeabilized, and prepared for immunohystochemistry (IHC) analysis.
Series [4] concerns mCherry-vimentin (soluble vimentin). Description: Live cell target detection in BHK-21 cells transfected with pmCherry-vimentin-N-18. It counts as cell-based, hamster. The settings on record: 250 nM, 5 min, early spreading cells. From the text: Soluble vimentin is a broad definition for the biochemical properties of vimentin forms that are extracted in low salt buffers (composed of tetramers, short oligomers, unit length filaments etc.). As such, these soluble vimentin forms are more dynamic structures. We employed a genetic approach to introduce a hybrid mCherry-vimentin construct to express vimentin as a fusion protein with the red fluorescent protein mCherry.
Chain of mCherry-vimentin (soluble vimentin) (P08670 2-466 limits assumed): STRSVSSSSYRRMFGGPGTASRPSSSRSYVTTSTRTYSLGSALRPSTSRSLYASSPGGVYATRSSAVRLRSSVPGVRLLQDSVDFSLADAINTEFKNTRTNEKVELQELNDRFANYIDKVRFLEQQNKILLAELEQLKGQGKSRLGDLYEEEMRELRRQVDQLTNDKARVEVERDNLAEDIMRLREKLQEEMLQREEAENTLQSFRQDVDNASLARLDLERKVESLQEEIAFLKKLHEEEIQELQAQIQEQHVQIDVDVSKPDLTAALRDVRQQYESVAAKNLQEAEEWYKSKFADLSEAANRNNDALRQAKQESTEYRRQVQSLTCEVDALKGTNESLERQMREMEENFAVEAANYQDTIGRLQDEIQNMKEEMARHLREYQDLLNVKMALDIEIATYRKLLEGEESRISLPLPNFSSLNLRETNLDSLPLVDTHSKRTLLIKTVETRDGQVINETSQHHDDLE
BHK-21 cells were transiently transfected with pmCherry-vimentin-N-18 plasmid (Adgene, MA) using lipofectamine, according to vendor instructions. Cells were trypsinized and replated in glass bottom culture plates (MatTek, MA) for 1 h in complete DMEM medium. […] Cells were immediately imaged live by epifluorescence microscopy, without fixation. […] Asterisks mark the position of the nucleus.

The target in series [5] is T1, soluble vimentin (Mesocricetus auratus, UniProt P02544).
T1 construct: BHK-21 cells were plated in glass bottom culture plates for 18 h to promote spreading; endogenous in cells; host or cells: BHK-21
T1 sequence (P02544 2-465 limits assumed): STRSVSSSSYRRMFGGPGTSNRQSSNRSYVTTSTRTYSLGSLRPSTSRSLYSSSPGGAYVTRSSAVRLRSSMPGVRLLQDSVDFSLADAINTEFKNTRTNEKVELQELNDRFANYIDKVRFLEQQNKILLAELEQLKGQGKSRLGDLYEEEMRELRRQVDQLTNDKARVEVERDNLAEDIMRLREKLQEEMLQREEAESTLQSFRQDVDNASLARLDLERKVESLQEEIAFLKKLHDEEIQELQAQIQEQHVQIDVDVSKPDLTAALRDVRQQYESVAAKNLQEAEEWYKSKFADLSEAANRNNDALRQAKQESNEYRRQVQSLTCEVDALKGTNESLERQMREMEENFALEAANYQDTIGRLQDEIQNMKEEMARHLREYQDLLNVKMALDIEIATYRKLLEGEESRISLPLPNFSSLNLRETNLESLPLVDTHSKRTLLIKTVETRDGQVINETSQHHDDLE
Description: Dynamic movement of vimentin structures, live imaging of BHK-21 cells. Particulars: 250 nM, 5 min, SF medium, images at 5 sec intervals. It is filed as cell-based, hamster.

The target of series [6] is vimentin in corneal myofibroblasts (Mus musculus, UniProt P20152). The method, then: Alkali injury to the cornea causes blindness due to the development of corneal fibrosis from overexpression of IF proteins in resident myofibroblasts. This model is extensively employed to investigate corneal fibrosis and role of IF proteins.
Chain of vimentin in corneal myofibroblasts (P20152 2-466 limits assumed): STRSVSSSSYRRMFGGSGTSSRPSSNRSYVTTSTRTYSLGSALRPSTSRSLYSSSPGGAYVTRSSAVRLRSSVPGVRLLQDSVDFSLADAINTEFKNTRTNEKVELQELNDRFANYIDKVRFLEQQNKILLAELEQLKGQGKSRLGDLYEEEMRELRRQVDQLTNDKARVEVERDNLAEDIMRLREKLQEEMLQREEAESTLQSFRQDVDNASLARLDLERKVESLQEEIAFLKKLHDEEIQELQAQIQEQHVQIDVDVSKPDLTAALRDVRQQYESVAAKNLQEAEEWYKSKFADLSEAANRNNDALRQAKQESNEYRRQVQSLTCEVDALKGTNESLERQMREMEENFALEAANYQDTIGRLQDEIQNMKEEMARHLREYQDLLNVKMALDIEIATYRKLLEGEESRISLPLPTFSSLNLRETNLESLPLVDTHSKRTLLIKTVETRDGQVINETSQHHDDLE
Thus, anesthetized mice were injured with alkali by application of 0.15N NaOH for 1 min to the cornea, eyes was extensively and the corneal epithelium gently removed. During the process of wound healing the resident keratocytes become activated into wound fibroblasts and subsequently into myofibroblasts to overexpress both vimentin and desmin, the two type III IFs in the cornea. Thus, heightened expression of these IF targets compared to uninjured corneas, the latter expressing very low levels of vimentin and no desmin, provided the rationale to compare uninjured mice. […] Mice were sacrificed after 1 h, eyes enucleated and cryosections were obtained.

The target of series [7] is T2, vimentin (Muller glial filaments) (Mus musculus, UniProt P20152).
T2 construct: from tissue; host or cells: mouse retina (in vivo, cryosections)
T2 sequence (P20152 2-466 limits assumed): as above
Description: In vivo delivery of probe to non injured mice, retina cryosections. The settings on record: 1 μM intraperitoneal, eyes enucleated after 24 h, FITC channel. An excerpt:
Cryosections of the eye were subjected to fixation and subsequently stained with anti-vimentin antibody (V9) to mark Muller glial filaments.

Series [8] concerns the target T3, vimentin associated with mitochondria (Mesocricetus auratus, UniProt P02544).
T3 construct: endogenous in cells; host or cells: BHK-21
Description: Co-staining with MitoTracker dye in live BHK-21 cells. It is filed as cell-based, hamster. Particulars: 250 nM, 5 mins, serum-free medium. The method, then: BHK-21 cells were plated overnight and prior to staining placed in serum-free medium. […] Cells were washed and directly imaged live at dual wavelengths.

Series [9] has as its system human vimentin-cherry hybrid. Description: Time-lapse imaging of BHK-21 cells expressing polymerized mCherry-vimentin. It is filed as cell-based, hamster. The settings on record: 250 nM, 5 minutes, serum-free medium, BHK-21 cells with mCherry-vimentin, replated 18 h. The method, then: Transfection of human vimentin-cherry hybrid plasmid into fibroblasts and examination of polymerized vimentin structures under live cell imaging experiments identify numerous vimentin filaments that show some common, and yet, other distinct staining from the WFA-Verde-labeled structures. BHK-21 cells were transiently transfected with pmCherry-Vimentin-N-18 plasmid (Adgene, MA) using lipofectamine. Cells were cultured to establish the expression of plasmid and then trypsinzed and replated in glass culture plates for 18 h. […] Images at the starting point (T1), mid-point (T2) and at end of 3 minutes (T3).

Series [10] concerns the target T4, soluble vimentin species bound to motile mitochondrial species (Mesocricetus auratus, UniProt P02544).
T4 construct: BHK-21 cells were plated in glass bottom culture plates for 18 h to promote spreading; endogenous in cells; host or cells: BHK-21
The experiment in a line: Motility quantification of WFA-Verde-labeled particles in BHK-21 cells (FIJI/Image J). It counts as cell-based, hamster. The settings on record: 250 nM, images at 5 sec intervals.

Some results are limits rather than exact numbers.

T3 sequence (P02544 2-465 limits assumed): as the sequence (P02544 2-465 limits assumed) above
T4 sequence (P02544 2-465 limits assumed): as above
Chain of human vimentin-cherry hybrid (P08670 2-466 limits assumed): as the sequence (P08670 2-466 limits assumed) above

With `CC1=C(COC(=O)CNC(=O)CCCCCNC(=O)COc2ccc(C3=[N+]4C(=Cc5ccc(-c6cccs6)n5[B-]4(F)F)C=C3)cc2)C(=O)OC(C(C)C2CCC3C4CC5OC56C(O)C=CC(=O)C6(C)C4CCC23C)C1` (stereo not drawn) [WFA-Rosa, Withaferin A-BODIPY-TR-X], the “labeling of Muller glia at laser lesion” value in [1] is listed as “showed a similar pattern illuminating Muller glia”.
As for `COC(=O)Nc1nc2ccc(C(=O)c3cccs3)cc2[nH]1` [Nocodazole, nocodazole, reference compound], the “effect on movement of filaments” value in series [2] (time-lapse every 5 seconds) is recorded as “causes filaments to be arrested in movements”.
Withaferin A-BODIPY-FL [WFA-Verde]: the “labeling of vimentin structures in cell cytoplasm” value in [3] (3.5 μM, 1 h, rabbit corneal fibroblast cells) is “does label both soluble and vimentin structures throughout the cell cytoplasm”. Moreover, the “co-localization of probe with p-Ser38Vimentin” value in [3] (3.5 μM, 1 h, rabbit corneal fibroblast cells, fixed, anti-pSer38Vimentin antibody) is on record as “extensive co-localization”. The effect on cytoskeleton entry in [3] (short exposure to higher dose (3.5 μM, 1 h), well spread cells) was “did not dramatically alter the cytoskeleton”. In [4], the “co-localization with Vim-Cherry” value was “shows co-localization with Vim-Cherry”. Moreover, in series [5], the “speed of WFA-Verde labeled dot-like structure” value is around 0.5 μm/sec. The “overlap between vimentin antibody staining and probe binding” value in series [6] (alkali injured corneas, majority of labeled cells) is “extensive overlap”. Besides, in series [6] (alkali injured mice, day 14, intraperitoneal, sacrificed after 1 h), the “probe staining of corneas from injured eyes” value is “abundance of WFA-Verde binding to corneal myofibroblasts”. In addition, in [6] (mouse, in vivo, ip), the “metabolic conversion in vivo” value is on record as “likely also not metabolically converted” and the “time to reach the target organ after systemic delivery” value was at most 1 h. The “probe staining of non-injured corneas” value in [6] (non-injured mice, intraperitoneal, sacrificed after 1 h, corneal stroma) is reported as “very low level of background staining”. The “incorporation of probe into vimentin in non-gliotic retina” value in [7] was “minimal incorporation”. Also, the “overlap of probe-stained vimentin structures with MitoTracker dye” value in series [8] is “extensive overlap”. In addition, in [9], the “staining of vimentin structures at low dose” value is listed as “does not stain to all vimentin structures”. Moreover, the “overlap of WFA-Verde and MitoTracker staining under nocodazole” value in [2] is “extensive overlap”. For the same compound, the “rate of movement of majority of motile WFA-Verde-labeled particles” value in series [10] is around 0.01 micrometer/second. For the same compound, in series [1], the “labeling of Muller glia at laser lesion” value was “labeled the Muller glia extensively”.
